melting point [°C] | SMILES
154 | C=CC(C)(C)c1cc(CCC(=O)c2ccc(O)cc2)c(OC)cc1O
112 | O=[N+]([O-])c1ccc(Oc2cc(Cl)c(Cl)cc2Cl)c(Cl)c1Oc1ccccc1
45 | CCCCCCCC(=O)N(C)Cc1cccc(-c2ccc(Nc3ccccc3C(=O)O)cc2)c1
122 to 123 | O=[N+]([O-])c1ccc(Sc2nccn2Cc2ccccc2)cc1
102 to 104 | CCCCCCCCCCCCC1=C(O)C(=O)c2c(Cl)cccc2C1=O
92.5 to 95 | CCCc1c(OCCCCCOc2c(C)c(C)c3c(c2C)CC[C@](C)(C(=O)O)O3)ccc(C(C)=O)c1O
217 to 218 | CNC(=O)C(C)n1c(-c2ccc(Cl)cc2)nc2cccnc21 (stereo unspecified)
115 to 117 | COC(=O)c1n[nH]cc1[N+](=O)[O-]
104 to 106 | CCOC(=O)Cc1nn(C/C=C/c2cccc(C(F)(F)F)c2F)c(=O)c2ccccc12
184 to 186 | O=C(NO)c1ccc(C(=O)NOCC2CCc3ccccc3C2)cc1 (stereo unspecified)
166 to 167 | Cc1nc(NC(=O)Nc2ccc(N3CCN(C(=O)Nc4ccc(OCCO)cc4C(F)(F)F)CC3)cc2)sc1C
72 to 73 | COc1ccc(C(=O)C(C)(C)Br)c(Cl)c1Cl
269 to 273 | COc1ccc2c(c1)c1c(n2C(=O)c2ccc(Cl)cc2)CCC(C(=O)O)C1 (stereo unspecified)
180 | CNC(=O)N1CCc2[nH]cnc2C1c1ccccc1 (stereo unspecified)
137 to 138 | CC(C)(C)OC(=O)NCCCCNc1c([N+](=O)[O-])cnc2cccnc12
109 to 110 | CN(C)CCC=C1c2ccccc2CCc2ccc(S(C)(=O)=O)cc21
> 290 | CC(=O)Nc1cc(NC(C)=O)cc([N+](=O)[O-])c1
209 to 211 | O=C(CN1CCC(Cc2ccc(F)cc2)CC1)Nc1ccc2c(c1)OCC(=O)N2
94 to 95 | COc1cc(CO)ccc1OCc1csc(N2CCOCC2)n1
173 to 175 | O=C(NC(=O)c1c(F)cccc1F)Nc1ccc(SC(F)(F)F)cc1F
172 to 174 | CCCOc1cc2ccccc2c2c(=O)c(-c3ccc(OC)cc3)c[nH]c12
132 to 133 | Cc1c(C)n(Cc2ccccc2)c2ncnc(Nc3cccc(Cl)c3)c12
185 to 186 | Oc1ccc(-c2c(Br)ccc3sc4ccccc4c23)cc1

melting point [°C] | SMILES
169 to 172 | CS(=O)(=O)c1ccc(-c2cnn(CC(F)(F)F)c(=O)c2NC2CCC2)cc1
177 to 179 | O=c1ncc(Br)cn1CCO
162 | CC(C)(C)OC(=O)N1CCn2c(c(C(N)=O)c(Br)c2C2CC2)C1
170 to 175 | N#Cc1cc(C(F)(F)F)cnc1O
52 to 53.5 | COC(=O)c1sc(C(F)(F)F)cc1OCc1ccccc1
350 to 352 | Cc1nnc2nc(-c3ccccc3)c3cc([N+](=O)[O-])ccc3n12
87 to 89 | CSc1cc(SC)c(SC)cc1NC(C)=O
232 to 233 | CCc1nc2c(N)nc3ccccc3c2n1Cc1cc(-c2ccc(F)cc2)no1
246 to 247 | CCOC(=O)c1c(-c2ccccc2)n(-c2ccc(OC)cc2)c2ccccc2c1=O
115 to 117 | CS(=O)(=O)Oc1cc(=O)c(OCc2ccccc2)cn1Cc1ccccc1
184 to 185 | NC(=O)[C@@H]1[C@H](Nc2c(Br)cnc3[nH]c(-c4cccc(CN5CCOCC5)c4)nc23)[C@H]2C=C[C@@H]1C2
51 to 52 | COC(=O)c1cc(F)c(C)c(N)c1Cl
208 | CC(=O)Nc1ccc(C(=O)N2CC3CC(CN(Cc4ccccc4)C3)C2)cc1
44 to 46 | CCOC(=O)C(Cc1ccc(OCCN2CCC(C)(C)c3cc(C(=NOC)c4ccccc4)ccc32)cc1)Oc1ccc(C(F)(F)F)cc1 (stereo unspecified)
154 to 155 | COC(=O)c1cnc(N)c(N)c1
52.3 to 53.3 | COc1ccc(C(=O)CC(=O)C(C)(C)C)cc1OC
162 to 163 | Cc1c(NC(=O)c2ccc(-c3ccc4c(c3)CCCCO4)cc2)ccc2cc(CN3CCCC3)cnc12
171 to 173 | O=C(NC(=O)c1cc(F)c(Cl)nc1Cl)NC1CC1
72 | COc1cc2c(cc1F)C(CCCN1CCN(C)CC1)(c1ccccc1F)C(=O)N2S(=O)(=O)c1ccc(OC(C)C)cc1 (stereo unspecified)
108 to 110 | CCOC(=O)N[C@@H]1Cc2ccccc2[C@H]1Nc1ccccc1C(=O)OC (relative stereo)
161 to 162 | CC1=C(C(=O)c2ccc(Br)cc2)C(=O)C2C(O)=CC=CC2C1=O (stereo unspecified)
134 to 135 | CCC1(CC)c2cc(Br)ccc2-c2ccc(-c3nc4ccccc4s3)cc21
169 to 170 | CNc1nc(-c2ccc3c(c2)CCC3)c(-c2cccnc2)s1

melting point [°C] | SMILES
147 to 152 | CN(C)c1ccc(C(=O)N(CCN2CCC(C(=O)c3ccc(F)cc3)CC2)c2cccnc2)cc1
55 to 56 | CCCCN(CCCC)c1cc(OC)c(C=O)c(OC)c1
116 to 118 | CCN(c1ccc(OC)cc1)c1cc(NC)nc(C)n1
179 to 180 | O=C(Nc1ccc(-n2nc(-c3cncc(Br)c3)cc2OC(F)F)cc1)c1ccncc1F
312 to 313 | Cc1nc2c3c(c(C(=O)NC4CC4)cc2n1C)CCC(c1ccccc1)O3 (stereo unspecified)
221 | Cc1cc(=O)c(Oc2ccc(Cl)cc2)c(-c2ccc(S(N)(=O)=O)cc2)o1
93 to 97 | O=C(OCC1OC(n2cc(F)c(=O)[nH]c2=O)C(O)C1OC(=O)c1ccccc1)c1ccccc1 (stereo unspecified)
91 to 92 | O=C(CCCBr)N1CC(c2ccc(Cl)cc2)Sc2ccccc21 (stereo unspecified)
188 to 190 | O=C(O)C(CN1C(=O)CNC1=O)CS(=O)(=O)c1ccc(-c2ccc(Cl)cc2)cc1 (stereo unspecified)
74 to 76 | CC(C)(C)C(=O)Nc1ccccn1
115 to 117 | O=[N+]([O-])C1=C2N(CC3CCOC3)CCN2C2CCCC1O2 (stereo unspecified)
230 to 232 | COc1ncnc2c(Cl)c(NC(=S)NCCN)ccc12
201 | COC(=O)CCCc1cc2nc(Cl)ccc2n1S(=O)(=O)c1ccc2c(c1)CCO2
112 to 115 | COc1cc(C(C)N(O)C(N)=O)ccc1OCCc1ccccc1 (stereo unspecified)
59 to 60 | CC(=O)Oc1c(C)sc2ccc(C(F)(F)F)cc12
195 to 196 | Cc1nc(NC(=O)c2cccc(C(F)(F)F)c2)sc1C(=O)NCc1ccccc1
63 to 67 | CC[C@H](COCC#Cc1ccccc1)n1cnc2c(N)nc3ccccc3c21
135 to 137 | Cn1cc(C2=C(c3cn(-c4ccccc4)c4ccccc34)C(=O)NC2=O)c2ccccc21
230 to 232 | CC(C)Cn1c(CN2CCCS2(=O)=O)nc2c(N)nc3ccccc3c21
66 to 67 | Cc1cccc(C(=O)Cc2ccnc(F)c2)c1
80 to 82 | CCCCCCCCCCCCC1=C(Cl)C(=O)c2ccccc2C1=O
127 | COc1cccc(SCCF)c1S(N)(=O)=O
83 | OCC1OC(n2cnc3c(Nc4ccccc4)ncnc32)CC1F (stereo unspecified)

SMILES | melting point [°C]
Cc1cc(Cl)ccc1-n1c(CF)nc2ccc(N)cc2c1=O | 191 to 193
CC1(C)CCC(C)(C)c2cc(-c3cc([N+](=O)[O-])ccc3-c3ccccc3)ccc21 | 181 to 183
